SMILES strings stand for the structures.

The nature of the series: gradient 5% acetonitrile 3 min, to 50% in 2 min, to 85% in 15 min, held 3 min, 100 µL/min. To be noted: column: Zorbax Extend-C18 2.1 x 50 mm; eluents: water / acetonitrile, 0.1% formic acid. Put shortly: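 The mobile phases were water and acetonitrile, each with 0.1% formic acid, pumped at 100 μL/min through a Zorbax Extend-C18 column (2.1 × 50 mm, 1.8 μm). Pure standards were injected as mixtures of ~100 molecules and detected by a quadrupole time-of-flight mass spectrometer in positive and negative ionization mode. Retention time came from computationally picked adduct peaks, each inspected by hand.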
Compound `Cn1ccc2c(cc(C(=O)NCc3cccc(C(F)(F)F)c3)n2C)c1=O` registered an RP-LC retention time of 771 s.

Compound `CC1CCN(S(=O)(=O)c2ccc(-c3nnc(C(C)C)o3)o2)CC1` yielded an RP-LC retention time of 964 s.

As to `O=C(OCCN1CCCCC1)c1c[nH]c2ccccc12`, the RP-LC retention time amounted to 666 s.

The compound `COc1ccc(-n2c(=O)n(C)c(=O)c3cc(C(=O)Nc4cc(C)ccc4F)cnc32)cc1` gave an RP-LC retention time of 912 s.

Regarding `COc1ccc(OC)c(CC2C(=O)Nc3c(C)cccc32)c1` (stereo not given), the RP-LC retention time turned out to be 882 s.

`O=S(=O)(Cc1ccccc1)N1CCC(Oc2nc3ccccc3s2)CC1` yielded an RP-LC retention time of 1060 s.

For the compound `COc1cc(OC)c(NC(=O)N2CC(n3cnnc3-c3ccccc3)C2)cc1Cl`, the RP-LC retention time was 703 s.

The compound `CC1=C(c2cccc(Cl)c2)S(=O)(=O)N=C1N1CCCN(C(=O)c2ccncc2)CC1` had an RP-LC retention time of 677 s.

On to `Cc1noc(C)c1-c1ccc(S(=O)(=O)NC2CCCCC2)cc1`, for which the RP-LC retention time was 959 s.

`COc1ccc2[nH]c(C(=O)NC3CC3)cc2c1`: the RP-LC retention time worked out at 703 s.

Consider `CCCNc1cc(N2CCC(CCC(=O)N(C)Cc3ccccc3)CC2)ncn1`, for which the RP-LC retention time was 702 s.

In turn, `CCCCn1cc(S(=O)(=O)Nc2cccc(CC)c2)c2cccnc21` came in with an RP-LC retention time of 1070 s.

`CCCNC(=O)C1CCCN(c2nc3ncn(CC(=O)Nc4c(C)cccc4CC)c(=O)c3s2)C1` (stereo not given) registered an RP-LC retention time of 727 s.

Compound `O=C(Nc1cc(F)ccc1F)C1CCCN(c2nc3ccccc3nc2C(F)(F)F)C1` (stereo not given) gave an RP-LC retention time of 1270 s.

As for `COc1ccc(OC)c(S(=O)(=O)NCc2ccc3c(c2)CCN3C(=O)c2ccccc2)c1`, the RP-LC retention time stood at 896 s.

Compound `Cc1ccc(-c2cn3c(CC(=O)NCc4ccc(Cl)cc4)csc3n2)cc1C` yielded an RP-LC retention time of 892 s.

For `O=C(Cc1c[nH]c2ccccc12)N1CCC(c2nc(C3CC3)no2)C1` (stereo not given), the RP-LC retention time was determined as 764 s.

For the compound `CC1CCCN(CC(=O)Nc2nc(-c3ccccc3)cs2)C1` (stereo not given), the RP-LC retention time was determined as 655 s.

As for `COc1ccc(-c2noc(C3CCCN3C(=O)Nc3ccccc3Cl)n2)cc1` (stereo not given), the RP-LC retention time amounted to 920 s.

`CCOC(=O)c1ccc(N2CCCC2)nn1` showed an RP-LC retention time of 562 s.

`COc1ccccc1NC(=O)N1CCCN(Cc2nc3cc(Cl)ccc3o2)CC1` came in with an RP-LC retention time of 687 s.

As to `CCOc1cc(=O)n2c(c1C(=O)Nc1cc(OC)ccc1OC)CCCC2`, the RP-LC retention time amounted to 727 s.

With `CC(C)c1noc(-c2cccnc2-n2cnc(C(=O)Nc3ccc(F)cc3)c2)n1`, the RP-LC retention time was 890 s.

Take `O=C(c1ccc(OCC2CCCN2C(=O)c2ccc(F)cc2)cc1)N1CCCC1` (stereo not given): the RP-LC retention time was 829 s.

`O=C(NOCCc1ccccc1)Nc1ccc([N+](=O)[O-])cc1` had an RP-LC retention time of 843 s.

The compound `COc1cccc(CNC(=O)Cn2cnc3nc(N4CCCC(C(=O)NC5CC5)C4)sc3c2=O)c1` (stereo not given) displayed an RP-LC retention time of 666 s.

On to `CN(CCc1noc(COc2ccc(F)cc2)n1)C(=O)Nc1ccc(Br)cc1`, for which the RP-LC retention time amounted to 980 s.

Consider `O=C(O)C1CCN(c2nc3ccc(-c4cccnc4)nc3s2)CC1`, for which the RP-LC retention time was 610 s.

Consider `COc1cccc(CNC(=O)Cn2ccnc2-c2ccnc(N3CCCC3)c2)c1`, for which the RP-LC retention time was determined as 577 s.

`CC1CCN(C(=O)C2CCN(c3cncnc3N(C)C)CC2)CC1` came in with an RP-LC retention time of 624 s.

`COc1cccc(NC(=O)CN2CCC(c3nc(-c4cccs4)no3)CC2)c1` returned an RP-LC retention time of 680 s.

Take `COC(=O)C(Cc1ccccc1)NC(=O)N1CCCn2nc(-c3ccncc3)cc2C1` (stereo not given): the RP-LC retention time was determined as 616 s.

`Cc1ccc(NC(=O)c2nc(C(C)C)oc2C)c(C)c1` came in with an RP-LC retention time of 1190 s.

In turn, `O=C(N[C@H]1C[C@@H]2C[C@H]1CN2C(=O)c1ccc(F)c(Cl)c1)c1ccccc1` had an RP-LC retention time of 772 s.

In turn, `CCc1ccc(S(=O)(=O)N2CCc3nc(-c4ccc(OC)cc4)ncc3C2)cc1` yielded an RP-LC retention time of 1140 s.

`O=C(NCc1ccccc1F)c1c(O)c2cccnc2n(Cc2ccccc2)c1=O` showed an RP-LC retention time of 1360 s.

`COCCN1C(=O)CS(=O)(=O)C12CCN(C(=O)C1(c3ccccc3)CC1)CC2`: the RP-LC retention time came to 685 s.

In turn, `Cc1ccc(Cc2nc(-c3ccc4c(c3)nnn4CCN3CCOCC3)no2)cc1` yielded an RP-LC retention time of 703 s.

`CCn1c(=O)c(C)nc2cc(-c3noc(-c4sccc4C)n3)ccc21` showed an RP-LC retention time of 1080 s.

With `Oc1ccccc1-c1nc2ccc(Cl)cn2c1Nc1ccc(Cl)cc1`, the RP-LC retention time is 1090 s.

In turn, `CCc1ccccc1NC(=O)N1C[C@@H](F)C[C@H]1C(=O)N1CCc2ccccc2C1` came in with an RP-LC retention time of 811 s.

`CCOc1ccc(-c2noc(Cc3nnc(-c4ccccc4)o3)n2)cc1` gave an RP-LC retention time of 1040 s.

The compound `CCc1ccc(NC(=O)C2CCCN2S(=O)(=O)c2ccc3c(c2)NC(=O)CO3)cc1` (stereo not given) yielded an RP-LC retention time of 859 s.

Take `CCn1ncc2ccc(C(=O)NC(C)C)cc21`: the RP-LC retention time worked out at 702 s.

For the compound `Cc1cccc(Cn2c(=O)n(C)c(=O)c3snc(-c4ccccn4)c32)c1`, the RP-LC retention time was found to be 925 s.

Take `Cc1cccc2nc(-c3ccc(N(C)C)cc3)c(Nc3ccc4c(c3)OCO4)n12`: the RP-LC retention time turned out to be 747 s.

For `O=C(Nc1ccccc1)Nc1ccc2nnc(C3CC3)n2c1`, the RP-LC retention time amounted to 703 s.

In turn, `COc1cccc(-c2nc(Cc3nc(-c4ccccc4)oc3C)no2)c1` showed an RP-LC retention time of 1100 s.

In turn, `O=C(Cc1ccccc1Cl)NC1CCN(c2cc(-c3ccccc3)[nH]n2)C1` (stereo not given) displayed an RP-LC retention time of 721 s.

For `CCCN(CCC)C(=O)C1CCN(C(=O)c2ccccc2Cl)CC1`, the RP-LC retention time was 602 s.

`O=C(NC1CCCC1)c1ccc2ccnc(N3CCN(c4ccc(Cl)cc4)CC3)c2c1` showed an RP-LC retention time of 890 s.

Take `O=C(NCCn1cnc(-c2ccccc2)cc1=O)c1ccc2nsnc2c1`: the RP-LC retention time stood at 659 s.

Take `CCN(CC)c1ncc2c(n1)CCC(C(=O)NCc1ccc(C(C)C)cc1)C2` (stereo not given): the RP-LC retention time was found to be 821 s.

`CCn1ccc(C(=O)N2[C@H]3CC[C@@H]2c2cnc(C)nc2C3)n1` had an RP-LC retention time of 610 s.

`COc1cc(-c2oc3cc(O)cc(O)c3c(=O)c2O[C@@H]2O[C@H](CO)[C@@H](O)[C@H](O)[C@H]2O)ccc1O` displayed an RP-LC retention time of 684 s.

As for `Cn1cc(CN2CCC(C(=O)NCCC3=CCCCC3)CC2)c2cc(Cl)ccc21`, the RP-LC retention time amounted to 778 s.

As to `CC(C)n1nc2c(S(=O)(=O)N3CCOCC3)cccn2c1=O`, the RP-LC retention time stood at 670 s.

For `O=C(c1ccco1)N1CCCn2nc(-c3cccs3)cc2C1`, the RP-LC retention time was found to be 750 s.

As for `CCN(C(=O)C1CCN(S(=O)(=O)c2ccc3c(c2)NC(=O)CO3)CC1)c1ccc(OC)cc1`, the RP-LC retention time turned out to be 788 s.

As for `O=C(CCn1cnnn1)N1CCC2(CC1)CC(CC(=O)N1CCOCC1)CCO2` (stereo not given), the RP-LC retention time is 585 s.
